Results from article PMC8667045, “Into Deep Water: Optimizing BCL6 Inhibitors by Growing into a Solvated Pocket” (Journal of Medicinal Chemistry, 2021).
“And” between values parts separate entries of the source, which are not always exact repeats. Equal entries are not always repeated. Where two headings read alike, the source gives them in different places.

Tests used:
BCL6 BTB domain [1] = biological target: T1, BCL6 BTB domain (Homo sapiens, UniProt P41182); test: biochemical
Procedure: Supplementary experimental: protein production, purification and crystallography
3C protease cleavage site.
used without cleaving the tag, as a 6His was needed to bind to the anti-6His-Terbium antibody. For
For both plasmid constructs described above, transformed BL21-AI E. coli cells were grown in LB
carried out at 18 °C for 18 hours. Cells were harvested by centrifugation (5500 g for 30 minutes at 4
oC) and stored at -80 °C.
Cells were re-suspended in a buffer composed of 20 mM Tris pH 8, 250 mM NaCl, 1 mM MgCl2, 0.5
Cells were lysed by sonication followed by centrifugation at 21,000 g for 45 minutes at 4 °C. […]
The final protein was assessed for purity
and molar mass by SDS-PAGE and high-resolution mass spectrometry, respectively.
directly eluted from the HisTrap FF column without HRV-3C treatment, and submitted to Superdex75
gel filtration as described above. […]
2. Supplementary experimental: biological assay conditions
IC50 values were determined using
a sigmoidal four-parameter logistic fit equation.

NMR solubility assay = type: physicochemical; conditions: HEPES buffer, 5% DMSO, room temperature
Procedure: 3. Supplementary experimental: physicochemical assays
The plate was then sealed and incubated at room temperature for 20 hours, without shaking. The plate was centrifuged again for 1 minute at […]
spectrometer equipped with a 5 mm TCI-CryoProbe. […]
deuterated solvent. […] All NMR data were acquired at the […]
contained 16k time-domain data points. Relaxation delay was set to 20 sec. […]

Measured logD7.4 = type: physicochemical; conditions: pH 7.4
OCI-Ly1 = test: 14 day cell viability assay (CellTiter Glo); type: cell-based; conditions: Homo sapiens, BCL6-high, 14 days of treatment
SU-DHL-4 = test: 14 day cell viability assay (CellTiter Glo); type: cell-based; conditions: Homo sapiens, BCL6-high, 14 days of treatment
SU-DHL-6 = test: 14 day cell viability assay (CellTiter Glo); type: cell-based; conditions: Homo sapiens, BCL6-high, 14 days of treatment
OCI-Ly3 = test: 14 day cell viability assay (CellTiter Glo); type: cell-based; conditions: Homo sapiens, BCL6-low, 14 days of treatment
MM.1S = test: 14 day cell viability assay (CellTiter Glo); type: cell-based; conditions: Homo sapiens, MM1.S; BCL6-low, 14 days of treatment
[2] = In vivo pharmacokinetic study in female Balb/c mice; conditions: mouse; for Cmax: blood
Procedure: 5. Supplementary experimental: in vivo PK and PD experiments
All procedures were in accordance with UK Home Office regulations under the Animals (Scientific […]
accordance with published guidelines17. Mice were allowed access to food and water ad libitum.
5.1In vivo pharmacokinetic studies
All experiments were conducted in accordance with the UKCC guidelines for animal experimentations17. Animals were adapted to laboratory conditions for at least 1 week prior to dosing and were allowed food and water ad libitum. CCT369347 (25) was administered iv or po (mouse, 0.1 mL/10 g in 10% DMSO, 5% tween 20 in saline); Blood samples were collected in […]
collection together with a standard curve and quality controls spiked in control blood. Samples were reconstituted in a Water:MeOH mixture containing internal standard as previously described […]
Following centrifugation, extracts were analyzed by multiple reaction monitoring of precursor and product ions by ESI-LCMS/MS on either a Waters (Milford, MA, USA) Xevo TQ-S or Sciex (Framingham, MA, USA) QTrap6500 following gradient separation with 0.1% […]
Quantitation was carried out with an external calibration. Quality controls were […]
Pharmacokinetic parameters were derived from noncompartmental analysis using Phoenix Pharsight. Non compartmental analysis (model 200

[3] = Protein binding by equilibrium dialysis; type: in vitro ADME, mouse
[4] = PAMPA passive permeability pH 7.4; conditions: pH 7.4, passive permeability Pe
BCL6 BTB domain [5] = biological target: T1, BCL6 BTB domain; test: SPR assay, immobilised BCL6 BTB protein (Biacore T200); type: binding; set-up: made in house; host or cells: E. coli BL21-AI
[6] = female, Balb/c, whole blood, iv, 1 mg/kg, IV 1 mg/kg, individual animals
[7] = female, Balb/c, whole blood, po, 5 mg/kg, PO 5 mg/kg, individual animals
[8] = IV 1 mg/kg, individual animals, 1 mg/kg
[9] = PO 5 mg/kg, individual animals, 5 mg/kg

Which IC50 (BCL6 BTB domain [1]; BCL6 TR-FRET Geo Mean IC50, geometric mean of n replicates, supplement) does the source give for Cn1c(=O)cc(NC(C)(C)c2ncc(C3CC3)cn2)c2cc(Nc3ccnc(Cl)c3C#N)ccc21 [Compound 25, 2-Chloro-4-((4-((2-(5-cyclopropylpyrimidin-2-yl)propan-2-yl)amino)-1-methyl-2-oxo-1,2-dihydroquinolin-6-yl)amino)nicotinonitrile] here?
Its IC50 is 30 nM.

And the IC50 (BCL6 BTB domain [1]; TR-FRET IC50 individual replicates, single replicates, italic values used 10nM BCL6, otherwise 1nM BCL6)?
The IC50 was 40 nM and 20 nM (2×) and 30 nM (2×).

What about the “BCL6 TR-FRET pIC50 mean” value (BCL6 BTB domain [1]; mean of n replicates) of the same compound?
The value was 7.58 and 7.583.

And the IC50 (BCL6 BTB domain [1]; read-out: BCL6 TR-FRET Geo Mean IC50, geometric mean of n replicates, supplement)?
The IC50 was 26.1 nM.

And the solubility at 20 h (NMR solubility assay)?
Its solubility at 20 h is 30 µM and 29 µM.

And the logD (Measured logD7.4)?
The logD was 2.7.

And the GI50 (OCI-Ly1)?
Its GI50 is 1680 nM.

And the GI50 (SU-DHL-4)?
Its GI50 is 3450 nM.

What about the GI50 (SU-DHL-6) of the same compound?
The GI50 was 2550 nM.

What about the GI50 (OCI-Ly3) of the same compound?
The GI50 was over 10000 nM.

What about the GI50 (MM.1S) of the same compound?
Its GI50 is over 10000 nM.

What about the clearance ([2]; female, Balb/c, whole blood, iv, 1 mg/kg, 1 mg kg^–1 i.v., mean, read-out: clearance (CL)) of the same compound?
Its clearance is 24 mL/min/kg.

And the Cmax [2, 6]?
The Cmax was 443 nM.

And the AUC(0-inf) [2, 6]?
Its AUC(0-inf) is 1.38 µM·h.

And the AUC(0-t) [2, 6]?
The AUC(0-t) was 1.28 µM·h.

And the clearance ([2]; female, Balb/c, whole blood, iv, 1 mg/kg, IV 1 mg/kg, individual animals, read-out: CL)?
Its clearance is 24.9 mL/min/kg.

And the Tmax ([2]; female, Balb/c, whole blood, iv, 1 mg/kg, IV 1 mg/kg, individual animals, read-out: Tmax)?
The Tmax was 0.08 h.

And the Vd ([2]; female, Balb/c, whole blood, iv, 1 mg/kg, IV 1 mg/kg, individual animals, read-out: Vss)?
Its Vd is 9.43 L/kg.

What about the Cmax [2, 7] of the same compound?
The Cmax was 347 nM.

What about the AUC(0-inf) [2, 7] of the same compound?
The AUC(0-inf) was 1.44 µM·h.

And the AUC(0-t) [2, 7]?
The AUC(0-t) was 1.35 µM·h.

And the Tmax ([2]; female, Balb/c, whole blood, po, 5 mg/kg, PO 5 mg/kg, individual animals, read-out: Tmax)?
Its Tmax is 2 h.

And the bioavailability ([2]; female, Balb/c, whole blood, po, 5 mg kg^–1 p.o. vs 1 mg kg^–1 i.v.)?
The bioavailability was 29%.

What about the “toxicity in PK study” value ([2]; 1 mg kg^–1 i.v. and 5 mg kg^–1 p.o.) of the same compound?
The value was “no toxicity was observed”.

And the Cmax [2, 8]?
Its Cmax is 521 nM and 471 nM.

And the AUCINF [2, 8]?
Its AUCINF is 1.45 µM·h and 1.416 µM·h.

And the AUClast [2, 8]?
The AUClast was 1.395 µM·h and 1.344 µM·h.

What about the CL [2, 8] of the same compound?
The CL was 23.7 mL/min/kg and 24.2 mL/min/kg.

And the HL_Lambda_z [2, 8]?
The HL_Lambda_z was 7.99 h and 5.93 h and 6.83 h.

What about the Vss [2, 8] of the same compound?
The Vss was 6.96 L/kg and 7.81 L/kg.

What about the Cmax [2, 9] of the same compound?
Its Cmax is 382 nM and 427 nM.

And the AUCINF [2, 9]?
The AUCINF was 1.848 µM·h and 1.279 µM·h.

What about the AUClast [2, 9] of the same compound?
The AUClast was 1.534 µM·h and 1.233 µM·h.

What about the HL_Lambda_z [2, 9] of the same compound?
The HL_Lambda_z was 1.33 h and 2.12 h and 1.14 h.

What about the Tmax [2, 9] of the same compound?
Its Tmax is 1 h.

What about the “free in mouse plasma” value [3] of the same compound?
Its value is 1.3%.

What about the PAMPA7.4 [4] of the same compound?
Its PAMPA7.4 is 35 x10^-6 cms^-1.

And the Kd (BCL6 BTB domain [5]; individual runs, Langmuir plot, 1:1 binding model, read-out: SPR KD)?
The Kd was 277 nM and 282 nM and 198 nM and 201 nM.

And the Kd (BCL6 BTB domain [5]; mean of four runs, read-out: SPR KD mean value)?
The Kd was 236 nM.

What about the “SPR pKd” value (BCL6 BTB domain [5]; mean, +/- SEM where printed) of the same compound?
Its value is 6.63.
